{"source": "patent EP1343508B1", "about": "“USE OF AN OESTROGEN IN THE MANUFACTURE OF A COMPOSITION CONTAINING OESTROGEN FOR THE TREATMENT OF ATROPHIC VAGINITIS” (Novo Nordisk Femcare AG, priority 2000, dated 2002)", "assay": "24-hour serum estradiol profile after vaginal tablet insertion (radioimmunoassay), Example 2", "format": "in vivo, postmenopausal women", "conditions": "for patients with areas under the curve below 600 pg hr/mL at both time points / percentage of patients with areas under the curve below 600 pg hr/mL at both time points: weeks 0 and 12; for Maximal concentration / Time to maximal concentration: mean ± SD", "excerpt": "After the screening visit, patients received no study treatment during the 4-week run-in period prior to the baseline visit. […] The vaginal tablets were identical in appearance. Patients inserted 1 tablet intravaginally, once daily for the initial 2 weeks of the study and then twice per week (Sunday and Thursday) for the remaining 10 weeks. Patients were instructed to use their medication at a consistent time each day, preferably in the morning.\nUpon presentation to the clinic for each visit, a vaginal cytology specimen was obtained. Patients then inserted the tablets. […] The blood samples obtained at 30 minutes before insertion, and at 6, 12, and 24 hours after insertion were also used to determine the FSH concentration via immunoradiometric assay.\nData for area under the curve and maximal concentration were converted to a logarithmic scale, and changes from first dose (at the baseline visit) in the logarithmic values were estimated using 95% confidence intervals derived from paired t-tests. […] Differences within treatment groups in FSH concentration were determined using the Wilcoxon signed rank test based on changes from baseline in mean concentrations at weeks 2 and 12. Mean concentrations were defined as the average concentrations obtained at 30 minutes before tablet insertion and 6, 12, and 24 hours after insertion.", "key": {"[1]": {"conditions": "10 µg E2 vaginal tablet, Week 0"}, "[2]": {"conditions": "10 µg E2 vaginal tablet, Week 12"}, "[3]": {"conditions": "25 µg E2 vaginal tablet, Week 0"}, "[4]": {"conditions": "25 µg E2 vaginal tablet, Week 12"}}, "data": [{"smiles": "C[C@]12CC[C@@H]3c4ccc(O)cc4CC[C@H]3[C@@H]1CC[C@@H]2O", "note": "[E2, 17β-estradiol]", "values": [{"measurement": "patients with areas under the curve below 600 pg hr/mL at both time points", "setting": "10 µg E2", "value": 22, "unit": "patients"}, {"measurement": "percentage of patients with areas under the curve below 600 pg hr/mL at both time points", "setting": "10 µg E2", "value": 96, "unit": "%"}, {"measurement": "Serum concentration over 24 hours", "setting": "[1]", "value": 0.015, "unit": "ng/mL"}, {"measurement": "Maximal concentration", "setting": "[1]", "value": "35 ± 17", "unit": "pg/mL"}, {"measurement": "Area under the curve", "setting": "10 µg E2 vaginal tablet, Week 0, serum E2, mean ± SD", "value": "0.349 ± 0.107", "unit": "ng·h/mL"}, {"measurement": "Serum concentration over 24 hours", "setting": "[2]", "value": 0.011, "unit": "ng/mL"}, {"measurement": "Maximal concentration", "setting": "[2]", "value": "22 ± 17", "unit": "pg/mL"}, {"measurement": "Time to maximal concentration", "setting": "[2]", "value": "10 ± 8", "unit": "h"}, {"measurement": "Area under the curve", "setting": "10 µg E2 vaginal tablet, Week 12, serum E2, mean ± SD", "value": "0.264 ± 0.12", "unit": "ng·h/mL"}, {"measurement": "patients with areas under the curve below 600 pg hr/mL at both time points", "setting": "25 µg E2", "value": 14, "unit": "patients"}, {"measurement": "percentage of patients with areas under the curve below 600 pg hr/mL at both time points", "setting": "25 µg E2", "value": 74, "unit": "%"}, {"measurement": "Serum concentration over 24 hours", "setting": "[3]", "value": 0.022, "unit": "ng/mL"}, {"measurement": "Time to maximal concentration", "setting": "[3]", "value": "15 ± 9", "unit": "h"}, {"measurement": "Area under the curve", "setting": "25 µg E2 vaginal tablet, Week 0, repeated Table 2", "value": "538000 ± 265000", "unit": "ng·h/mL"}, {"measurement": "Area under the curve", "setting": "25 µg E2 vaginal tablet, Week 0, serum E2, mean ± SD", "value": "0.538 ± 0.265", "unit": "ng·h/mL"}, {"measurement": "Serum concentration over 24 hours", "setting": "[4]", "value": 0.023, "unit": "ng/mL"}, {"measurement": "Time to maximal concentration", "setting": "[4]", "value": "13 ± 6", "unit": "h"}, {"measurement": "Area under the curve", "setting": "25 µg E2 vaginal tablet, Week 12, serum E2, mean ± SD", "value": "0.563 ± 0.341", "unit": "ng·h/mL"}]}]}
